Data reported in patent publication US12371459B2, “Antimicrobial peptide derived from Pseudin-2 peptide and uses thereof” (INDUSTRY-ACADEMIC COOPERATION FOUNDATION, CHOSUN UNIVERSITY, priority 2019, dated 2025).
Ends that are not written are not given here.

Experiments:
[1] = test system: P. aeruginosa (ATCC 27853); conditions: 24 hours at 37° C.
[2] = test system: P. aeruginosa 4007; conditions: P. aeruginosa 4007, 24 hours at 37° C.
[3] = test system: S. aureus (CCARM 3518); conditions: 24 hours at 37° C.
[4] = test system: E. coli (ATCC 25922); conditions: 24 hours at 37° C.
[5] = test system: E. coli (CCARM 1229); conditions: 24 hours at 37° C.
[6] = test system: S. aureus (CCARM 3090); conditions: 24 hours at 37° C.
[7] = test system: S. aureus (ATCC 25923); conditions: 24 hours at 37° C.
[8] = test system: P. aeruginosa 4891; conditions: P. aeruginosa 4891, 24 hours at 37° C.
[9] = test system: E. coli (CCARM 1238); conditions: 24 hours at 37° C.
[10] = Cytotoxicity in normal cell line (MTT); conditions: human, HaCaT keratinocyte cells
Method: (§1) To determine the cytotoxicity of the peptides produced by the method of Example 1 in normal cell line, cytotoxicity was measured by using human keratinocyte cell line (HaCaT cell line, Dr. N E. Fusenig, Heidelberg, Germany).
(§2) Specifically, HaCaT cells, which have been cultured in DMEM medium containing 10% FBS (fetal bovine serum), were aliquoted in a microtiter plate to have 2×10^5 cells per well. […] Twenty-four hours later, a reaction solution containing 0.5 mg/ml MTT (thiazolyl blue tetrazolium bromide) dissolved in phosphate buffered saline (PBS) was added in an amount of 100 μl to each well and the reaction was allowed to occur for 4 hours. After that, the supernatant was discarded, and, by dissolving MTT crystals that are formed by adding 200 μl DMSO (dimethyl sulfoxide), the absorbance at 560 nm was measured to determine the cell survival ability.

[11] = test system: plasmid DNA (pRSETB); assay: Binding between antimicrobial peptide and DNA (agarose gel electrophoresis); conditions: plasmid DNA 300 ng, peptide/DNA ratio 0.25:1 to 4:1, 10 minutes at 37° C.
Method: Specifically, plasmid DNA (pRSETB, 300 ng) and the peptide were reacted for at different ratio (i.e., peptide/DNA ratio was 0 (DNA only), 0.25:1, 0.5:1, 1:1, 1.5:1, 2:1, 3:1, or 4:1) for 10 minutes at 37° C. After that, electrophoresis was carried out using 1% agarose gel followed by staining with ethidium bromide (EtBr) and UV determination.

[12] = test system: Staphylococcus aureus; assay: Scanning electron microscopy (SEM), membrane damage; type: cell-based; conditions: peptide at MIC, 1 hour at 37° C.
Method: (§3) As a control, cells applied with no peptide were used. After the culture, the cells were collected, and, by using 2.5% glutaraldehyde, the bacterial cells were treated for 18 hour at 4° C. After carrying out washing two times with PBS buffer solution, the fixed cells were dehydrated in stepwise manner by using 100% ethanol and diluted ethanol (50%, 70%, 90% and 100%). After the dehydration followed by drying, the specimen was coated with platinum and determination was made by low vacuum scanning electron microscopy.

[13] = test system: Escherichia coli; assay: as above; type: cell-based; conditions: peptide at MIC, 1 hour at 37° C.
Method: as §3

[14] = test system: erythrocytes of a mouse (Balb/c); assay: Erythrocyte hemolytic activity; conditions: 1 hour at 37° C.
Method: To compare the cytotoxicity among the peptides that are produced by the method of Example 1, erythrocyte hemolytic activity of the synthesized peptide was measured.
After that, the amount of hemoglobin contained in a supernatant collected by centrifuge at 1,000×g was determined by measuring the absorbance at a wavelength of 414 nm. As a control to be used as a reference for cell disruption level, the supernatant collected by a treatment with 1% Triton X-100 (Sigma, USA) and a reaction for 1 hour at 37° C. was used to measure the absorbance. By setting the resulting absorbance value at 100% of the erythrocyte hemolytic activity, hemolysis of each peptide was calculated using the following equation 1. Erythrocyte disrupting ability (%)=(Absorbance A−Absorbance B)/(Absorbance C−Absorbance B)×100 Equation 1 (in the above equation, Absorbance A indicates the absorbance of a reaction solution treated with each peptide, in which the absorbance is measured at a wavelength of 414 nm; Absorbance B indicates the absorbance of a reaction solution treated with PBS, in which the absorbance is measured at a wavelength of 414 nm; and Absorbance C indicates the absorbance of a reaction solution treated with 1% Triton X-100, in which the absorbance is measured at a wavelength of 414 nm).

[15] = test system: Staphylococcus aureus; assay: Flow cytometry, propidium iodide, effect on bacteria membrane; type: cell-based; conditions: peptide at MIC
Method: (§4) After that, the supernatant was removed by centrifuge (10,000 rpm) and stained with propidium iodide (PI, concentration of 10 μg/ml) for 30 minutes at 4° C. Thereafter, unbound propidium iodide was removed by centrifuge, and the problem of cell aggregation phenomenon was solved by adding physiological saline (PBS) in an amount of 1 ml.

[16] = test system: Escherichia coli; assay: as above; type: cell-based; conditions: peptide at MIC
Method: as §4

[17] = test system: Candida albicans KCTC 7270; conditions: KCTC 7270, 18 h
Description: (§5) To compare the antimicrobial activity among the peptides produced by the method of Example 1, the inventors of the present invention measured the minimal growth inhibitory concentration (MIC), which is minimum concentration of the peptide not allowing any […] of bacterial cells.
(§6) Specifically, the bacterial strains described in the following Table 2 were purchased and cultured to a mid-log phase in a medium that is appropriate for each strain. […] After the addition to a plate, the cells were cultured for 18 hours at 37° C. […] As a control, Pseudin-2 as a mother peptide was used.

[18] = test system: Pseudomonas aeruginosa ATCC 27853; conditions: ATCC 27853, 18 h
Description: as §5, §6

[19] = test system: Bacillus subtilis KCTC 1998; conditions: KCTC 1998, 18 h
Description: as §5, §6

[20] = test system: Listeria monocytogenes KCTC 3710; conditions: KCTC 3710, 18 h
Description: as §5, §6

[21] = test system: Trichosporon beigelii KCTC 7707; conditions: KCTC 7707, 18 h
Description: as §5, §6

[22] = test system: Salmonella typhimurium KCTC 1926; conditions: KCTC 1926, 18 h
Description: as §5, §6

[23] = test system: Escherichia coli CCARM 1229 (tolerance to antibiotics)
Description: as §5, §6

[24] = test system: Staphylococcus aureus ATCC 25923; conditions: ATCC 25923, 18 h
Description: as §5, §6

[25] = test system: Staphylococcus aureus CCARM 3518 (tolerance to antibiotics)
Description: as §5, §6

[26] = test system: Escherichia coli ATCC 25922; conditions: ATCC 25922, 18 h
Description: as §5, §6

[27] = test system: Pseudomonas aeruginosa isolated strain 4007 (tolerance to antibiotics)
Description: as §5, §6

[28] = test system: Pseudomonas aeruginosa isolated strain 4891 (tolerance to antibiotics)
Description: as §5, §6

[29] = test system: Staphylococcus aureus CCARM 3090 (tolerance to antibiotics)
Description: as §5, §6

[30] = test system: Escherichia coli CCARM 1238 (tolerance to antibiotics)
Description: as §5, §6

[31] = test system: human keratinocyte cell line (HaCaT); assay: in vitro; conditions: HaCaT keratinocyte cells, 24 h, 100 µM
Method: as §1, §2

## O=C(O)c1cn(C2CC2)c2cc(N3CCNCC3)c(F)cc2c1=O [Ciprofloxacin]
[1]
  Biofilm minimal inhibitory concentration: 2 µM
[2]
  Biofilm minimal inhibitory concentration: >400 µM
[3]
  Biofilm minimal inhibitory concentration: >400 µM
[4]
  Biofilm minimal inhibitory concentration: 2 µM
[5]
  Biofilm minimal inhibitory concentration: 128 µM
[6]
  Biofilm minimal inhibitory concentration: >400 µM
[7]
  Biofilm minimal inhibitory concentration: 4 µM
[8]
  Biofilm minimal inhibitory concentration: >400 µM
[9]
  Biofilm minimal inhibitory concentration: 128 µM

## LNALKKVFQGIHEAIKKI-NH2 [Pse-T3]
[10]
  viability at 24 h, 3.13 µM: 100%
  viability at 24 h, 6.25 µM: 100%
  viability at 24 h, 12.5 µM: 100%
  viability at 24 h, 25 µM: 100%
  viability at 24 h, 50 µM: 100%
  viability at 24 h, 100 µM: 90.3%
[11]
  Binding to DNA: showed binding to DNA
[12]
  Membrane damage by SEM: higher damage and disruption of cell membrane
[13]
  Membrane damage by SEM: rougher than the cells treated with Pseudin-2
[14]; peptide concentration 3.13 μM
  Erythrocyte disrupting ability: 0%
[14]; peptide concentration 6.25 μM
  Erythrocyte disrupting ability: 0%
[14]; peptide concentration 12.5 μM
  Erythrocyte disrupting ability: 0%
[14]; peptide concentration 25 μM
  Erythrocyte disrupting ability: 0.5%
[14]; peptide concentration 50 μM
  Erythrocyte disrupting ability: 2.2%
[14]; peptide concentration 100 μM
  Erythrocyte disrupting ability: 5.6%
[15]
  Membrane disrupting ability compared with Pseudin-2: higher membrane disrupting ability than Pseudin-2
[16]
  Membrane disrupting ability compared with Pseudin-2: higher membrane disrupting ability than Pseudin-2

## WLNALKKVWQGIHEAIKLIWNWVQ-NH2 [Pse-Anal4]
[17]
  Minimal inhibitory concentration: 32 µM
[18]
  Minimal inhibitory concentration: 16 µM
[19]
  Minimal inhibitory concentration: 32 µM
[20]
  Minimal inhibitory concentration: 32 µM
[21]
  Minimal inhibitory concentration: 32 µM
[22]
  Minimal inhibitory concentration: 16 µM
[23]
  Minimal inhibitory concentration: 32 µM
[24]
  Minimal inhibitory concentration: 32 µM
[25]
  Minimal inhibitory concentration: 32 µM
[26]
  Minimal inhibitory concentration: 16 µM
[27]
  Minimal inhibitory concentration: 64 µM
[28]
  Minimal inhibitory concentration: 64 µM
[29]
  Minimal inhibitory concentration: 32 µM
[30]
  Minimal inhibitory concentration: 32 µM
[31]
  Cell survival ability: 10.8%
[10]; Cell survival ability
  viability at 24 h, 3.13 µM: 46.1%
  viability at 24 h, 6.25 µM: 35.1%
  viability at 24 h, 12.5 µM: 25.4%
  viability at 24 h, 25 µM: 20.8%
  viability at 24 h, 50 µM: 15.3%
  viability at 24 h, 100 µM: 10.1%
